# Experimental data reported in patent publication US20220202801A1, “USE OF COMPOUND IN PREPARATION OF DRUG FOR TREATING ATHEROSCLEROSIS” (GenEros Biopharma Ltd., priority 2019, published 2022).
# Experiments:
# ApoE knockout mice [1] = assay: Four blood lipids in serum of ApoE knockout mice (Example 1); format: in vivo; settings: for HDL-C / LDL-C / TC / TG: serum
# Excerpt: (§1) Methods: SPF grade C57BL/6 ApoE −/−model mice were provided by Guangdong Medical Experimental Animal Center, laboratory animal production license No. SOCK (Guangdong) 2013-0002. Laboratory animal quality certificate number: 44007200048196). Mice were half male and half female, aged 8 to 12 weeks, and 72 animals in total. After four weeks of housing in a SPF-level animal facility, animals with less body weights were disposed. A total of 64 animals were randomly divided into 8 groups, 8 in each group, fed with 10% high-fat food, and received with different treatments. Animals were observed and administered with the medicines by gavage once daily. The body weights were measured once a week and continued for 58 days. […] The test sample was dissolved in dimethyl sulfoxide solution and prepared with 30% PEG300.
# At the end of the experiment, animals were anesthetized with pentobarbital sodium. Blood was collected from the orbital venous plexus, and centrifuged at 3000 r/min at a low temperature for 10 min to separate the serum. The levels of total cholesterol TC, triglyceride TG, high-density lipoprotein HDL-C, and low-density lipoprotein LDL-C were measured, and the remaining serum was stored in a refrigerator at −80° C.
# Statistical analysis: Data were expressed as the mean plus or minus the standard deviation (x± s), and analyzed by SPSS21.0 statistical software. […] The level of test is α=0.05.
# [2] = system: atherosclerotic lesions in ApoE knockout mice; assay: Aortic HE and oil red O staining, atherosclerotic lesion scores (Example 1); format: in vivo; settings: for Mild n (number of animal cases with mild lesions) / Moderate n (number of animal cases with moderate lesions) / No lesion n (number of animal cases) / Severe n (number of animal cases with severe lesions): of 8 animals; for animals that had atherosclerosis (histological observation): of 8 aortas examined
# Excerpt: as §1
# (§2) After blood collection, the animals were sacrificed, and the aortic arch together with the heart and thoracic aorta were fixed with neutral formaldehyde and subject to pathological examination. The abdominal aorta was collected and quick-frozen in liquid nitrogen, and stored at −80° C.
# a) HE staining: aortic arch was sliced and HE stained. The plaques were observed under optical microscope.
# b) Oil red O staining: aortic arch was sliced and oil red O stained. The plaques were observed under optical microscope.
# VCAM-1 = assay: Immunohistochemistry of aortic wall, VCAM-1; format: in vivo, mice; settings: for aorta (VCAM-1) signal expression in blood vessels: IHC-P×400, single animal micrograph; for VCAM-1 average optical density: aortic wall
# Excerpt: as §1, §2
# (§3) c) Immunohistochemistry: The thoracic aorta was sliced and detected by immunohistochemistry for the expression of CD68, intercellular adhesion molecule-1 (ICAM-1), and vascular cell adhesion Molecule-1 (VCAM-1).
# CD68 = assay: Immunohistochemistry of aortic wall, CD68; format: in vivo, mice; settings: for aorta (CD68) signal expression in blood vessels: IHC-P×400, single animal micrograph; for CD68 average optical density: aortic wall
# Excerpt: as §1, §2, §3
# ApoE knockout mice [3] = assay: Blood lipid metabolism TG, TCHO, HDL-c, LDL-c (Example 2); format: in vivo
# Excerpt: Methods: A total of 130 SPF grade C57BL/6 ApoE −/− model male mice aged 8 weeks were purchased from Charles River Laboratories (Beijing, China) (animal license number: SCXK (Beijing) 2016-0001, animal qualification certificate No.: 11400700331337). After one week of acclimatization in a SPF-grade animal facility, the animals with less weights were discarded and the rest was randomly divided into 11 groups, with 8 animals in each group. Except for the healthy control group, the rest were fed with 10% high-fat food (the first day of the high-fat diet was recorded as D1). Starting from the 8th week of the high-fat diet, each group of animals was orally given solvents or corresponding drugs, and the volume of administration was 10 ml/kg, once a day for 8 weeks. Animals were observed and administered by gavage once a day and the body weight were measured once a week for 56 days. […] The store solution of the test samples was dissolved in dimethyl sulfoxide solution and prepared with 30% PEG300.
# At the end of the experiment, the animals were euthanized by inhalation of carbon dioxide. Blood was taken from the heart, and centrifuged at 3000 r/min at a low temperature centrifuge for 10 min to separate the serum. The levels of total cholesterol TC, triglyceride TG, high-density lipoprotein HDL-C, and low-density lipoprotein LDL-C were measured, and the remaining serum was stored in a refrigerator at −80° C.
# Before the start of the experiment, animal blood samples were analyzed for blood lipid metabolism, including conventional triglyceride (TG), total cholesterol (TCHO), high-density lipoprotein (HDL-c) and low-density lipoprotein (LDL-c). After high-fat or ordinary food feeding for 8 weeks, the blood lipid levels were measured again. After the drug treatment was started, blood lipid measurements were performed every four weeks until the end of the experiment.
# [4] = half male and female, 2 mg/kg body weight
# [5] = half male and female, 5 mg/kg body weight
# [6] = half male and female, 10 mg/kg body weight
# [7] = ♀, 2 mg/kg gavage QD, 58 days, 2 mg/kg
# [8] = ♀, 2 mg/kg gavage QD, 58 days, listed as Nib1, 2 mg/kg
# [9] = ♀, 10 mg/kg gavage QD, 58 days, 10 mg/kg
# [10] = ♀, 10 mg/kg gavage QD, 58 days, listed as Nib1, 10 mg/kg
smiles,measurement,setting,value
O=c1[nH]c2ccccc2n1C1CCN(CCCC(c2ccc(F)cc2)c2ccc(F)cc2)CC1 [Sample A],regulation on blood lipid levels (overall),"ApoE knockout mice [1]; Example 1, overall",have the effect of improving blood lipids
same,HDL-C,ApoE knockout mice [1]; [4],1.80 ± 0.62 mmol/L
same,LDL-C,ApoE knockout mice [1]; [4],6.23 ± 2.86 mmol/L
same,TC,ApoE knockout mice [1]; [4],19.86 ± 6.92 mmol/L
same,TG,ApoE knockout mice [1]; [4],1.18 ± 0.70 mmol/L
same,LDL-C,ApoE knockout mice [1]; [5],6.09 ± 2.12 mmol/L
same,TC,ApoE knockout mice [1]; [5],20.87 ± 6.13 mmol/L
same,TG,ApoE knockout mice [1]; [5],0.82 ± 0.17 mmol/L
same,HDL-C,"ApoE knockout mice [1]; half male and female, 5 mg/kg body weight, 5 mg/kg",1.63 ± 0.28 mmol/L
same,HDL-C,"ApoE knockout mice [1]; half male and female, 5 mg/kg body weight, listed as sample A, 5 mg/kg",lower
same,LDL-C,ApoE knockout mice [1]; [6],5.82 ± 2.13 mmol/L
same,TC,ApoE knockout mice [1]; [6],19.85 ± 6.26 mmol/L
same,TG,ApoE knockout mice [1]; [6],0.89 ± 0.20 mmol/L
same,HDL-C,"ApoE knockout mice [1]; half male and female, 10 mg/kg body weight, 10 mg/kg",1.62 ± 0.35 mmol/L
same,HDL-C,"ApoE knockout mice [1]; half male and female, 10 mg/kg body weight, listed as sample A, 10 mg/kg",lower
same,TG,"ApoE knockout mice [1]; ♀, 2 mg/kg gavage QD, 58 days",0.86 ± 0.16 mmol/L
same,LDL-C,ApoE knockout mice [1]; [7],3.86 ± 0.95 mmol/L
same,TC,ApoE knockout mice [1]; [7],13.88 ± 1.77 mmol/L
same,LDL-C,ApoE knockout mice [1]; [8],decreased
same,TC,ApoE knockout mice [1]; [8],decreased
same,LDL-C,"ApoE knockout mice [1]; ♀, 5 mg/kg gavage QD, 58 days",4.30 ± 0.39 mmol/L
same,TC,"ApoE knockout mice [1]; ♀, 5 mg/kg gavage QD, 58 days",15.41 ± 1.32 mmol/L
same,TG,"ApoE knockout mice [1]; ♀, 5 mg/kg gavage QD, 58 days",0.70 ± 0.11 mmol/L
same,TG,"ApoE knockout mice [1]; ♀, 10 mg/kg gavage QD, 58 days",0.76 ± 0.07 mmol/L
same,LDL-C,ApoE knockout mice [1]; [9],3.86 ± 0.38 mmol/L
same,TC,ApoE knockout mice [1]; [9],14.07 ± 0.64 mmol/L
same,LDL-C,ApoE knockout mice [1]; [10],decreased
same,TC,ApoE knockout mice [1]; [10],decreased
same,HDL-C,"ApoE knockout mice [1]; ♂, 2 mg/kg gavage QD, 58 days",2.26 ± 0.54 mmol/L
same,LDL-C,"ApoE knockout mice [1]; ♂, 2 mg/kg gavage QD, 58 days",8.60 ± 1.79 mmol/L
same,TC,"ApoE knockout mice [1]; ♂, 2 mg/kg gavage QD, 58 days",25.84 ± 3.63 mmol/L
same,TG,"ApoE knockout mice [1]; ♂, 2 mg/kg gavage QD, 58 days",1.51 ± 0.92 mmol/L
same,HDL-C,"ApoE knockout mice [1]; ♂, 5 mg/kg gavage QD, 58 days",1.83 ± 0.24 mmol/L
same,LDL-C,"ApoE knockout mice [1]; ♂, 5 mg/kg gavage QD, 58 days",7.87 ± 1.38 mmol/L
same,TC,"ApoE knockout mice [1]; ♂, 5 mg/kg gavage QD, 58 days",26.34 ± 2.50 mmol/L
same,TG,"ApoE knockout mice [1]; ♂, 5 mg/kg gavage QD, 58 days",0.94 ± 0.15 mmol/L
same,HDL-C,"ApoE knockout mice [1]; ♂, 10 mg/kg gavage QD, 58 days",1.92 ± 0.18 mmol/L
same,LDL-C,"ApoE knockout mice [1]; ♂, 10 mg/kg gavage QD, 58 days",7.78 ± 0.40 mmol/L
same,TC,"ApoE knockout mice [1]; ♂, 10 mg/kg gavage QD, 58 days",25.64 ± 1.32 mmol/L
same,TG,"ApoE knockout mice [1]; ♂, 10 mg/kg gavage QD, 58 days",1.02 ± 0.22 mmol/L
same,formation of arterial plaque (pathological results),"[2]; medium doses, preventive treatment",could delay the formation of arterial plaque in ApoE knockout mice to a certain extent
same,Mild n (number of animal cases with mild lesions),[2]; 2 mg/kg body weight,4
same,Moderate n (number of animal cases with moderate lesions),[2]; 2 mg/kg body weight,0
same,No lesion n (number of animal cases),[2]; 2 mg/kg body weight,1
same,Severe n (number of animal cases with severe lesions),[2]; 2 mg/kg body weight,3
same,Mild n (number of animal cases with mild lesions),[2]; 5 mg/kg body weight,5
same,Moderate n (number of animal cases with moderate lesions),[2]; 5 mg/kg body weight,0
same,No lesion n (number of animal cases),[2]; 5 mg/kg body weight,3
same,Severe n (number of animal cases with severe lesions),[2]; 5 mg/kg body weight,0
same,Mild n (number of animal cases with mild lesions),[2]; 10 mg/kg body weight,1
same,Moderate n (number of animal cases with moderate lesions),[2]; 10 mg/kg body weight,2
same,No lesion n (number of animal cases),[2]; 10 mg/kg body weight,2
same,Severe n (number of animal cases with severe lesions),[2]; 10 mg/kg body weight,3
same,animals that had atherosclerosis (histological observation),[2]; 2 mg/kg,7 cases
same,animals that had atherosclerosis (histological observation),[2]; 5 mg/kg,5 cases
same,animals that had atherosclerosis (histological observation),[2]; 10 mg/kg,6 cases
same,effect on atherosclerotic lesions compared with the statin group,"[2]; overall, aortic pathology Example 1",equivalent to or better than that of the statin group
same,"Scores (atherosclerotic lesion score, average of the group)","[2]; score 0-3 per Table 8, 2 mg/kg body weight",1.62 ± 1.19
same,"Scores (atherosclerotic lesion score, average of the group)","[2]; score 0-3 per Table 8, 5 mg/kg body weight",0.62 ± 0.52
same,"Scores (atherosclerotic lesion score, average of the group)","[2]; score 0-3 per Table 8, 5 mg/kg body weight, listed as sample A",lower than the model control group
same,"Scores (atherosclerotic lesion score, average of the group)","[2]; score 0-3 per Table 8, 10 mg/kg body weight",1.75 ± 1.28
same,aorta (VCAM-1) signal expression in blood vessels,VCAM-1; 2 mg/kg,low to medium
same,aorta (VCAM-1) signal expression in blood vessels,VCAM-1; 5 mg/kg,low to medium
same,aorta (VCAM-1) signal expression in blood vessels,VCAM-1; 10 mg/kg,low to medium
same,VCAM-1 average optical density,VCAM-1; 2 mg/kg gavage QD,1.41 ± 0.34 ×10^−2
same,VCAM-1 average optical density,"VCAM-1; 5 mg/kg gavage QD, 5 mg/kg",0.77 ± 0.46 ×10^−2
same,VCAM-1 average optical density,"VCAM-1; 5 mg/kg gavage QD, listed as Nib1, 5 mg/kg",reduced expression
same,VCAM-1 average optical density,"VCAM-1; 5 mg/kg gavage QD, listed as sample A, 5 mg/kg",lower than the model control group
same,VCAM-1 average optical density,"VCAM-1; 10 mg/kg gavage QD, 10 mg/kg",0.49 ± 0.51 ×10^−2
same,VCAM-1 average optical density,"VCAM-1; 10 mg/kg gavage QD, listed as sample A, 10 mg/kg",lower than the model control group
same,aorta (CD68) signal expression in blood vessels,CD68; 2 mg/kg,low to medium
same,aorta (CD68) signal expression in blood vessels,CD68; 5 mg/kg,low to medium
same,aorta (CD68) signal expression in blood vessels,CD68; 10 mg/kg,low to medium
same,CD68 average optical density,CD68; 2 mg/kg gavage QD,2.78 ± 2.01 ×10^−2
same,CD68 average optical density,CD68; 5 mg/kg gavage QD,1.39 ± 0.67 ×10^−2
same,CD68 average optical density,CD68; 10 mg/kg gavage QD,1.86 ± 1.60 ×10^−2
same,effect on high-density lipoprotein (HDL-c) level compared with the vehicle group,ApoE knockout mice [3],significantly reduce
same,effect on low-density lipoprotein (LDL-c) level compared with the vehicle group,ApoE knockout mice [3],significantly reduce
same,effect on total cholesterol (TCHO) level compared with the vehicle group,ApoE knockout mice [3],significantly reduce
same,effect on triglyceride (TG) level compared with the vehicle group,ApoE knockout mice [3],significantly reduce
